Here are results for 9 compounds from publication PMC7932080, “In vitro study of Hesperetin and Hesperidin as inhibitors of zika and chikungunya virus proteases” (PLoS ONE, 2021).

In series [1] the target is T1, ZIKV NS2B/NS3^pro (Zika virus, UniProt A0A024B7W1). On the set-up: method as in PMID 28700665. Conditions: cited from earlier work.
For series [2], the target named is T1, ZIKV NS2B/NS3^pro. In words: ZIKV NS2B/NS3^pro inhibition assay, fluorogenic substrate Pyr-Arg-Thr-Lys-Arg-AMC. Conditions: compound 20 µM.
The test system of series [3] is CHIKV. In words: Plaque reduction antiviral assay in Vero cells. Conditions: ~50 PFU, two inhibitor concentrations.
The target of series [4] is T2, CHIKV nsP2^pro (Chikungunya virus, UniProt Q8JUX6). In words: Thermal unfolding by fluorescence spectroscopy. The note with it: 10 µM protease, 75 µM ligand.
T2 sequence (Q8JUX6 1001-1333): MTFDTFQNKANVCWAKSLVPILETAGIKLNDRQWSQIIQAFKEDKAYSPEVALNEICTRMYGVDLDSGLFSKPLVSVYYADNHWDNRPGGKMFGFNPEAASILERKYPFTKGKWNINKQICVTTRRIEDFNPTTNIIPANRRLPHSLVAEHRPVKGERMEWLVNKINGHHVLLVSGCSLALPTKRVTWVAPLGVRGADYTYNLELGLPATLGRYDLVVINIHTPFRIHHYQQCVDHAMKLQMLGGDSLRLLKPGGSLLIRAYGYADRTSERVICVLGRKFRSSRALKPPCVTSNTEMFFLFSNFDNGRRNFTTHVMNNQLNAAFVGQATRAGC
For series [5] the following is noted: cited from earlier work.
For series [6] the following is noted: dose of administration 20 mg/kg, cited from earlier work.
For series [7], the system named is CHIKV. The note with it: cited from earlier work.
Series [8] has as its system Vero cells. In words: Cell viability through MTT assay. (Tetrazolium assays rely on reduction of a dye to a coloured formazan, in cell work by metabolically active cells.)
The target in series [9] is T2, CHIKV nsP2^pro. In words: CHIKV nsP2^pro FRET-based inhibition assay. The note with it: for % activity, mean / % inhibition, mean: mean n=3. Format: biochemical.
Series [10] concerns the target T2, CHIKV nsP2^pro. In words: Intrinsic Trp fluorescence titration (KD). Conditions: Trp fluorescence quenching, ± STD.
Series [11] deals with trypsin. On the set-up: method as in PMID 23124490. Conditions: cited from earlier work.
For series [12] the following is noted: cited from earlier work. This is another data set of the same source.
The target in series [13] is T2, CHIKV nsP2^pro. Set-up: method as in PMID 32791353. Conditions: cited from earlier work.

By IC50 is commonly meant the concentration that gives 50% inhibition. One may read the ΔTm as the change in melting temperature against a reference sample. Broadly, the inhibition is how much of the control response was suppressed. A word on the % inhibition: it is how much of the control response was suppressed. High values mean strong suppression, low ones little suppression. Broadly, the Kd is the free concentration of one partner at which half of the binding sites on the other are occupied at equilibrium, for simple one-to-one binding.

Values joined by “and” are separate entries in the source; they are usually repeats but may differ in a detail not shown here. Identical values can stand only once. Like-named read-outs stand apart in the source and are kept apart here.

T1 sequence (A0A024B7W1 1425-1464): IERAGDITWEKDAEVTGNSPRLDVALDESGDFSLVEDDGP
T1 sequence (A0A024B7W1 1503-1680): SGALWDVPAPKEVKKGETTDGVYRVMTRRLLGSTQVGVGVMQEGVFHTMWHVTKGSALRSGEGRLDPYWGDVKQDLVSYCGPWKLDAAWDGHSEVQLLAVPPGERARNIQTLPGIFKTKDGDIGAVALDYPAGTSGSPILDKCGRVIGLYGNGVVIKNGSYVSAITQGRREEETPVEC

`O=c1cc(-c2ccc(O)cc2)oc2cc(O)cc(O)c12` [Apigenin]: in [1], the IC50 was 56.3 ± 0.9 µM and the Inhibition mode entry is listed as “noncompetitive”.

For the compound `COc1cc(/C=C/C(=O)CC(=O)/C=C/c2ccc(O)c(OC)c2)ccc1O` [Curcumin], the Inhibition mode entry in series [1] is “noncompetitive”.

On to `COc1ccc([C@@H]2CC(=O)c3c(O)cc(O[C@@H]4O[C@H](CO[C@@H]5O[C@@H](C)[C@H](O)[C@@H](O)[C@H]5O)[C@@H](O)[C@H](O)[C@H]4O)cc3O2)cc1O` [HSD, 3’,5,7-trihydroxy-4’-methoxy-flavanone-7-rhamnoglucoside], for which the “Inhibition of protease activity, preliminary inhibition test” value in series [2] is “not relevant inhibition”. Moreover, in series [3], the “Antiviral activity, plaque reduction” value is “no antiviral activities”. In addition, in series [4], the “Melting temperature (Tm) of protease-ligand complex” value was found to be 52 °C. Besides, the ΔTm in series [4] came to 5 °C. In addition, the “Potential maximal tolerated dose” value in series [5] is “Citrus flavonoids are extremely safe and without side effects also up to high concentrations of 100 mg/kg to 500 mg/kg”. Besides, in series [6], the AUC inf. was 4.92 ± 0.38 µM·h. For the same compound, the AUC last in [6] is 4.12 ± 0.26 µM·h. Also, the Cl systemic clearance in [6] is 6.69 ± 0.58 L/h/kg. Further, the “MRT mean residence time” value in series [6] is 4.22 ± 0.67 h. The T1/2 elimination half-life in [6] is given as 6.74 ± 0.79 h. In addition, in [6], the “Vd volume of distribution” value is 64.58 ± 3.70 L/kg. In series [6] (read-out: Co initial concentration), the C0 is 7.47 ± 1.64 µM. The “Intracellular replication of CHIKV” value in [7] was “inhibit”. Further, the “Cytotoxic effect at the calculated IC50 concentrations” value in series [8] (2.3 to 300 µM, 2 days) is listed as “no cytotoxic effect”. In series [8] (48 h, concentrations up to 300 µM), this compound gave a 50% cytotoxic concentration of over 300 µM. Also, the IC50 in series [9] (1 µM protease, 3 µM substrate, mean ± SD, n=3) is under 10000 nM; in series [9] (IC50, 1 µM protease, 3 µM substrate, mean ± SD, n=3) it was 7100 ± 1100 nM; in series [9] (IC50, single replicate, HSD, single replicates A, B, C), 8.32 µM (2×) and 5.62 µM (2×) and 7.24 µM (2×); in [9] (Log conc nM (IC50 determination triplicate), HSD, single replicates A, B, C), 8320 nM and 5620 nM and 7240 nM; in series [9] (pIC50, from IC50 by online tool) it was 6310 nM; in series [11], 127 µM. The “LE (ligand efficiency)” value in series [9] ((1.4*pIC50)/N) is on record as 0.17. Besides, the “% activity, mean” value in [9] (HSD 0.25 (µM)) is on record as 97.3333%; in series [9] (HSD 0.5 (µM)), 90.3333%; in series [9] (HSD 1 (µM)) it was 82%; in [9] (HSD 2.5 (µM)), 72.3333%; in series [9] (HSD 5 (µM)) it was 54.6667%; in series [9] (HSD 10 (µM)), 39.6667%. Besides, the “% activity, mean” value in series [9] (HSD 15 (µM)) worked out at 28.6667%; in series [9] (HSD 20 (µM)), 21%; in series [9] (HSD 25 (µM)), 10.3333%; in [9] (HSD 30 (µM)), 6%; in series [9] (HSD 35 (µM)) it was 3%; in series [9] (HSD 40 (µM)), 0.4%. The “% inhibition, mean” value is 2.667% in series [9] (HSD 0.25 (µM)); 9.667% in series [9] (HSD 0.5 (µM)); 18% in series [9] (HSD 1 (µM)); 27.6667% in series [9] (HSD 2.5 (µM)); 45.3333% in series [9] (HSD 5 (µM)); 60.3333% in series [9] (HSD 10 (µM)). The “% inhibition, mean” value in series [9] (HSD 15 (µM)) is 71.3333%; in series [9] (HSD 20 (µM)), 79%; in series [9] (HSD 25 (µM)) it was 89.6667%; in series [9] (HSD 30 (µM)), 94%; in [9] (HSD 40 (µM)), 99.6%. Further, the inhibition at 0.5 µM in series [9] (HSD 0.5 (µM), replicates A-C) was 11%. Moreover, the “% activity” value is 84% in [9] (HSD 1 (µM), replicates A-C) and 30% in series [9] (HSD 15 (µM), replicates A-C). In addition, the “% inhibition” value in series [9] (HSD 1 (µM), replicates A-C) came out at 16%; in [9] (HSD 15 (µM), replicates A-C), 70%. Besides, the inhibition at 1 µM in series [9] (HSD 1 (µM), replicates A-C) turned out to be 22%. The same compound showed an inhibition at 2.5 µM in series [9] (HSD 2.5 (µM), replicates A-C) of 33%. This compound registered an inhibition at 5 µM in series [9] (HSD 5 (µM), replicates A-C) of 49%. The same compound showed an inhibition at 10 µM in series [9] (HSD 10 (µM), replicates A-C) of 62%. Moreover, in series [9] (HSD 15 (µM), replicates A-C), the inhibition at 15 µM stood at 74%. Further, the inhibition at 20 µM in series [9] (HSD 20 (µM), replicates A-C) is 82%; in series [9] (read-out: Inhibition of protease activity, preliminary inhibition test, compound 20 µM), over 60%. In [9] (HSD 25 (µM), replicates A-C), this compound came in with an inhibition at 25 µM of 93%. The same compound had an inhibition at 30 µM in [9] (HSD 30 (µM), replicates A-C) of 97%. The inhibition at 35 µM in series [9] (HSD 35 (µM), replicates A-C) came out at 99%. Testing at 40 µM in [9] (HSD 40 (µM), replicates A-C) gave an inhibition of 99.7%. This compound also yielded an inhibition at 45 µM in [9] (HSD 45 (µM), replicates A-C) of 100%. For the same compound, the Inhibition mode entry in series [9] (Lineweaver-Burk plot) is listed as “noncompetitive”. For the same compound, the remaining activity at 0.25 µM in series [9] (read-out: % activity, HSD 0.25 (µM), replicates A-C) was determined as 95%. The remaining activity at 0.5 µM in [9] (read-out: % activity, HSD 0.5 (µM), replicates A-C) turned out to be 89%. Further, the remaining activity at 1 µM in series [9] (read-out: % activity, HSD 1 (µM), replicates A-C) came out at 78%. Moreover, the remaining activity at 2.5 µM in [9] (read-out: % activity, HSD 2.5 (µM), replicates A-C) is 67%. Also, the remaining activity at 5 µM in series [9] (read-out: % activity, HSD 5 (µM), replicates A-C) is 51%. Further, the remaining activity at 10 µM in [9] (read-out: % activity, HSD 10 (µM), replicates A-C) came to 38%. For the same compound, the remaining activity at 15 µM in series [9] (read-out: % activity, HSD 15 (µM), replicates A-C) was 26%. Besides, the remaining activity at 20 µM in series [9] (read-out: % activity, HSD 20 (µM), replicates A-C) was 18%. Further, the remaining activity at 25 µM in [9] (read-out: % activity, HSD 25 (µM), replicates A-C) turned out to be 7%. In addition, the remaining activity at 45 µM in series [9] (read-out: % activity, HSD 45 (µM), replicates A-C) was found to be 0%. The same compound gave a Kd in series [10] of 40.7 ± 2 µM. Further, the Bioavailability result in series [12] is recorded as “limited bioavailability”.

For the compound `COc1cc(-c2oc3cc(O)cc(O)c3c(=O)c2O)ccc1O` [Isorhamnetin], in series [1], the IC50 is 15.5 ± 0.7 µM and the Inhibition mode entry was “noncompetitive”.

As for `O=c1cc(-c2ccc(O)c(O)c2)oc2cc(O)cc(O)c12` [Luteolin], the Inhibition mode result in [1] is given as “noncompetitive”.

For `O=c1c(O)c(-c2cc(O)c(O)c(O)c2)oc2cc(O)cc(O)c12` [Myricetin], in series [1], the IC50 was 1.3 ± 0.1 µM and the Inhibition mode result is recorded as “noncompetitive”.

As for `CO[C@@H]1[C@@H](OC(N)=O)[C@@H](O)[C@H](Oc2ccc3c(O)c(NC(=O)c4ccc(O)c(CC=C(C)C)c4)c(=O)oc3c2C)OC1(C)C` [Novobiocin], the IC50 in [13] was 2 µM.

Take `O=c1c(O)c(-c2ccc(O)c(O)c2)oc2cc(O)cc(O)c12` [Quercetin]: in [1], the IC50 is 2.4 ± 0.2 µM and the Inhibition mode entry is given as “noncompetitive”.

For the compound `CCCc1nc2c(C)cc(-c3nc4ccccc4n3C)cc2n1Cc1ccc(-c2ccccc2C(=O)O)cc1` [Telmisartan], in [13], the IC50 is 5 µM.
